In patent publication US7521239B2, “Photochemical internalization for virus-mediated molecule delivery into the cyosol” (priority 2000, dated 2009):

Legend:
[1] = test system: HCT 116 adenocarcinoma cells; assay: MTT cell survival after PCI-induced transduction with AdV-TK and ganciclovir; type: cell-based, human
Description: HCT 116 adenocarcinoma cells were infected with an adenovirus gene therapy vector encoding the HSV-tk gene (AdV-TK) and subjected to PCI-treatment. Conditions for infection were as described under “Experimental protocols” (MOI=5). 2 days after infection, different concentrations of ganciclovir (GCV) was added, and the cells were incubated further for 3 days before analysis of cell survival by the MTT method. This method is based on reduction of a water-soluble tetrazolium salt (MTT) to a purple, insoluble formazan product by mitochondrial dehydrogenases present in living, metabolically active cells. One ml medium containing […] is added to the cells, followed by 4 h incubation (37° C., 5% v/v CO2). The resulting formazan crystals are dissolved by adding 200 μl isopropanol (Sigma, Mo., USA) per well. The solution is transferred to a 96 wells plate which is read by a Multiskan EX microplate reader (Labsystems, Finland) with a 570 nm bandpass filter.

WiDr cells = assay: Flow cytometry of β-galactosidase transduction in WiDr cells (AlPcS2a, red light); type: cell-based, human; conditions: photochemical treatment alone (Ad−, S+)
Description: (§1) HCT 116 and WiDr human colon carcinoma cells were obtained from American Type Culture Collection (ATCC nos. CCL-247 and CCL-218, respectively). Cells were cultured in RPMI 1640 medium containing 10% fetal calf serum, 100 U/ml penicillin, […] and 2 mM glutamine (all Gibco BRL, Paisley, UK) at 37° C. in 5% CO2 atmosphere.
(§2) The recombinant adenovirus AdHCMV-lacZ encoding the E. coli lacZ gene controlled by the human cytomegalovirus promoter was obtained by homologous recombination using the pJM17 system in 293 cells (Addison et al., 1997, J. Gen. Virol. 78: 1653-61). Recombinant vectors were plaque purified, grown to high titer in 293 cells and purified by CsCl banding (Hitt et al., 1995, Methods Mol. Genet. 7:13-30). The virus-solution was diluted in PBS containing 0.68 mM CaCl2 and 0.5 mM MgCl2 to the MOIs employed in the different experiments. […]
(§3) The cells were trypsinised, centrifuged, resuspended in 25 ml medium and incubated for 5 min at 37° C. […] The samples were kept on ice for 30-60 min, filtered through a […] mesh nylon filter and analyzed in a FACS-Calibur flow cytometer (Becton Dickinson). […] Fluorescein-fluorescence was measured through a 510-530 nm filter after excitation with an argon laser (15 mW, 488 nm). […] The data were analyzed with the CELLQuest Software (Becton Dickinson).

HCT 116 cells = assay: Flow cytometry of β-galactosidase transduction in HCT 116 cells (AlPcS2a, red light); type: cell-based, human
Description: as §1, §2, §3

[2] = test system: human WiDr adenocarcinoma cells; assay: X-gal staining of photochemically transduced WiDr cells; type: cell-based; conditions: AlPcS2a and light, no adenovirus
Description: 50 000 cells per well were seeded in 6-well plates (Costar,) and incubated overnight at 37° C. 1 ml medium containing […] AlPcS2a (Phorphyrin Products, Logan, Utah) was added, the cells were incubated for 18 h at 37° C., washed three times with medium and incubated for another 3 h at 37° C. The medium was removed and 200 μl of AdHCMV-lacZ was added. After incubation for 30 min at 37° C., 2 ml medium was added and the cells were incubated for 30 min before exposure to red light (Phillips TL 20 W/09, filtered through a Cinemoid 35 filter, with a light intensity reaching the cells of 13.5 W/m2). Before analysis of β-galactosidase activity the cells were incubated at 37° C. for two days.
For X-gal (5-bromo-4 chloro 3 indolyl-β-D-galactopyranoside) staining the medium was discarded, 1 ml of fixative solution (0,05% glutaraldehyde in PBS) was added and the cells were incubated at room temperature for 15 min. The fixative solution was discarded and the cells were washed three times in PBS at room temperature (second rinse was for 10 min, first and third rinses were performed quickly). 1 ml X-gal solution (5 mM K3Fe(CN)6, 5 mM K4Fe(CN)6, 1 mM MgCl2, 1 mg/ml X-gal) was added and the cells were incubated for 4 h to overnight at 37° C. and observed by microscopy (100× magnification) using an Axiovert S100 microscope (Zeiss) with an MC100 Spot camera (Zeiss).

Compound | GCV-mediated cell killing (cell survival, MTT) ([1]; control: photosensitizer + GCV, no AdV-TK) | change in percentage of positive cells (WiDr cells) | percentage of β-galactosidase positive cells (HCT 116 cells; Ad−, S+, 8 min light) [%] | mean fluorescence in non-infected cells (HCT 116 cells; photochemical treatment (AlPcS2a + light), no adenovirus) [RFU] | GCV-mediated cell killing (cell survival, MTT) ([1]; control: only photosensitizer treatment) | β-galactosidase expressing cells (X-gal staining, microscopy) [2]
Nc1nc(O)c2ncn(COC(CO)CO)c2n1 [GCV, ganciclovir] | no such effect | – | – | – | – | –
aluminum phthalocyanine with 2 sulfonate groups on adjacent rings [AlPcS2a] | – | did not significantly change | 0.4 | 12 | no such effect | No positive cells
